Columns and labels:
[1] = system: soybean rust fungus (Phakopsora pachyrhizi) having an amino acid substitution of F129L in a mitochondrial cytochrome b protein; experiment: Test Example 7 Control Test Against Soybean Rust (leaf disk); assay type: in vivo; settings: 200 ppm, 10 μL per soybean leaf disk (cultivar: Kurosengoku), inoculated after 1 day
Method: (§1) The term of “non-treated well” in Test Example 4, Test Example 5, and Test Example 6 represents a well wherein a test was carried out under the same conditions as those described in each Test Example except for dispensing DMSO instead of a diluted solution with DMSO comprising the Present compound. Also, the term of “non-treated” in Test Examples 15 to 17 represents a test which was carried out under the same conditions as those described in each Test Example except for dispensing DMSO instead of a diluted solution with DMSO comprising the Present compound. Also, the term of “non-treated leaf disk” in Test Example 7 represents a leaf disk wherein a test was carried out under the same conditions as those described in the Test Example except for dispensing DMSO instead of a diluted solution with DMSO comprising the Present compound. Also, the term of “non-treated” in Test Example 10 and Test Example 11 means that a diluted solution with water of a formulation comprising the Present compound was not sprayed.
A true leaf of a soybean (cultivar: Kurosengoku) was cut into a diameter of 1 cm to prepare each leaf disk. To each well of a 24 well microplate was dispensed 1 mL of an agar medium (agar concentration 1.2%), and then one of said leaf disk was placed on the agar medium in each well. To a mixture of Sorpol (registered trademark) 1200KX (0.5 μL), DMSO (4.5 μL), and xylene (5 μL) was added a DMSO solution (20 μL) comprising a test compound (10000 ppm), and the resulting mixture was mixed. The resulting mixture was diluted with ion exchange water to prepare a mixture comprising a prescribed concentration of the test compound.
The resulting mixture was sprayed into each leaf disk at a ratio of 10 μL per leaf disk. After 1 day, an aqueous suspension of spores of soybean rust fungus (Phakopsora pachyrhizi) having an amino acid substitution of F129L in a mitochondrial cytochrome b protein (1.0×10^5/mL) was inoculated by spraying on each leaf disk. After the inoculation, the microplate was placed into an artificial climate chamber (Lighting: 6 hours, Lights-out: 18 hours, Temperature: 23° C., Humidity: 60%). After 1 day, the leaf disks were air-dried until water droplets on the surfaces of the leaf disks disappeared, and the microplate was placed into the artificial climate chamber again for 12 days. Then, lesion area of soybean rust was investigated. As a result, when the prescribed concentration was 200 ppm, each lesion area of leaf disk treated with any one of the Present compound 9, 10, 11, 13, 14, 15, 16, 17, 18, 20, 32, 33, 34, 35, 36, 37, 38, 39, 40, 42, 43, 44, 47, 48, 49, 50, 51, 52, 53, 55, 56, 57, 58, 62, 63, 64, 65, 66, 67, 68, 69, 70, 71, 73, 74, 75, 76, 77, 78, 79, 80, 81, 82, 83, 84, 85, 86, 87, 88, 89, 90, 91, 92, 93, 94, 95, 96, 97, 98, 99, 100, 101, or 102 as the test compound was 30% or less relative to the lesion area of non-treated leaf disk.

Cochliobolus miyabeanus = experiment: Test Example 6 Control Test Against Rice Brown Spot Fungus (96 well titer plate growth); assay type: cell-based; settings: 1 μL of 150 ppm DMSO solution + 150 μL YB liquid medium, 23° C., 3 days, absorbance at 550 nm
Method: as §1
Each of the Present compound 17, 33, 36, 37, 39, 40, 41, 42, 43, 44, 48, 49, 50, 51, 52, 53, 62, 68, 69, 70, 71, 76, 77, 79, 80, 81, 82, 83, 84, or 97 was diluted with DMSO to obtain a diluted solution containing 150 ppm of each compound, and 1 μL of the diluted solution was dispensed into a titer plate (96 well), and thereto was then dispensed 150 μL of a YB liquid medium to which spores of Cochliobolus miyabeanus were inoculated in advance. This plate was cultured at 23° C. for 3 days, thereby allowing Cochliobolus miyabeanus to undergo proliferation, and the absorbance at 550 nm of each well of the titer plate was then measured to determine a degree of growth of Cochliobolus miyabeanus. As a result, the degree of growth in the well treated with each of the above Present compounds was 50% or less relative to the degree of growth in the non-treated well.

Phakopsora pachyrhizi [2] = experiment: Test Example 15 Control Test Against Soybean Rust Fungus (spore germination, 96 well titer plate); assay type: cell-based; settings: treatment concentration 1 ppm, 23° C., several hours
Method: as §1
The Present compound was diluted with DMSO to obtain a diluted solution containing 150 ppm of the compound, and 1 μL of the diluted solution was dispensed into a titer plate (96 well), and thereto was then dispensed 149 μL of an aqueous suspension (1.0×10^4/mL) of spores of Phakopsora pachyrhizi to which spores of Phakopsora pachyrhizi were suspended in advance. This plate was cultured at 23° C. for several hours, and then germinated spores of Phakopsora pachyrhizi were counted. As a result, when the treatment concentration was 1 ppm, the number of germinated spores in each well comprising any one of the Present compound 1, 11, 17, 18, 20, 23, 30, 33, 34, 35, 36, 37, 38, 39, 40, 41, 42, 43, 44, 46, 47, 48, 49, 50, 51, 52, 53, 54, 55, 56, 57, 58, 62, 63, 64, 65, 66, 67, 68, 69, 70, 71, 72, 73, 74, 75, 76, 77, 78, 79, 80, 81, 82, 83, 84, 85, 86, 87, 88, 89, 90, 91, 92, 93, 94, 95, 96, 97, 98, 99, 100, 101, or 102 as the test compound was 50% or less relative to the number of germinated spores in the non-treated well.

Phakopsora pachyrhizi [3] = experiment: Test Example 11 Control Test Against Soybean Rust (pot test, spraying before inoculation); assay type: in vivo; settings: 200 ppm foliage spray, soybeans (Kurosengoku), inoculated after 2 to 5 days
Method: as §1
A plastic pot was filled with soil, soybeans (cultivar: Kurosengoku) were seeded thereto, and cultured in a greenhouse for 10 to 14 days. The Present compound 9, 10, 11, 13, 14, 15, 17, 18, 20, 21, 22, 23, 26, 27, 33, 34, 35, 36, 37, 38, 39, 40, 41, 42, 43, 44, 46, 47, 53, 54, 55, 56, 57, 58, 66, 67, 68, 69, 70, 71, 73, 74, 75, 76, 77, 78, 79, 80, 81, 82, 83, 84, 85, 86, 87, 88, 89, 90, 91, 92, 93, 94, 95, 96, 97, 98, 99, 100, 101, or 102 formulated according to the method described in the Formulation Example 1 was mixed with water in such a way that the concentration thereof was 200 ppm, and the resulting mixture was sprayed to foliage of the above soybeans so as to adequately adhere onto the surfaces of leaves of the above soybeans. After spraying the mixture, the soybeans were air-dried. After 2 to 5 days, an aqueous suspension of spores of Phakopsora pachyrhizi was inoculated by spraying to the soybeans. After the inoculation, the soybeans were placed in a greenhouse at 23° C. in daytime and at 20° C. in nighttime under a humid condition for 1 to 2 day(s), then cultured in a greenhouse for 12 days, and then a lesion area was investigated. As a result, the lesion area in the soybeans treated with each of the above Present compound was 30% or less relative to the lesion area in the non-treated soybeans.

O=S(=O)(c1ccco1)n1ccc(-c2ccc(Br)cc2)n1 [compound 49] was tested, and the “lesion area relative to the lesion area of non-treated leaf disk” value [1] was at most 30%, the “degree of growth relative to the degree of growth in the non-treated well” value (Cochliobolus miyabeanus) was at most 50% and the “number of germinated spores relative to the non-treated well” value (Phakopsora pachyrhizi [2]) was at most 50%.

In the case of O=S(=O)(c1ccoc1)n1ccc(-c2cccc(F)c2)n1 [compound 95], the “lesion area relative to the lesion area in the non-treated soybeans” value (Phakopsora pachyrhizi [3]) was at most 30%, the “lesion area relative to the lesion area of non-treated leaf disk” value [1] was at most 30% and the “number of germinated spores relative to the non-treated well” value (Phakopsora pachyrhizi [2]) was at most 50%.

In the case of O=S(=O)(c1cccnc1)n1ccc(-c2ccc(F)c(F)c2)n1 [compound 101], the “lesion area relative to the lesion area in the non-treated soybeans” value (Phakopsora pachyrhizi [3]) was at most 30%, the “lesion area relative to the lesion area of non-treated leaf disk” value [1] was at most 30% and the “number of germinated spores relative to the non-treated well” value (Phakopsora pachyrhizi [2]) was at most 50%.

In the case of Cn1cc(S(=O)(=O)n2ccc(-c3cc(F)c(Br)c(F)c3)n2)cn1 [compound 35], the “lesion area relative to the lesion area in the non-treated soybeans” value (Phakopsora pachyrhizi [3]) was at most 30%, the “lesion area relative to the lesion area of non-treated leaf disk” value [1] was at most 30% and the “number of germinated spores relative to the non-treated well” value (Phakopsora pachyrhizi [2]) was at most 50%.

O=S(=O)(c1cccc(Cl)c1)n1ccc(-c2cc(F)c(Br)c(F)c2)n1 [compound 18] was tested, and the “lesion area relative to the lesion area in the non-treated soybeans” value (Phakopsora pachyrhizi [3]) was at most 30%, the “lesion area relative to the lesion area of non-treated leaf disk” value [1] was at most 30% and the “number of germinated spores relative to the non-treated well” value (Phakopsora pachyrhizi [2]) was at most 50%.

In the case of O=S(=O)(c1cccs1)n1ccc(-c2ccc3ocnc3c2)n1 [compound 67], the “lesion area relative to the lesion area in the non-treated soybeans” value (Phakopsora pachyrhizi [3]) was at most 30%, the “lesion area relative to the lesion area of non-treated leaf disk” value [1] was at most 30% and the “number of germinated spores relative to the non-treated well” value (Phakopsora pachyrhizi [2]) was at most 50%.

O=S(=O)(c1cccnc1)n1ccc(-c2cccc(F)c2)n1 [compound 56] was tested, and the “lesion area relative to the lesion area in the non-treated soybeans” value (Phakopsora pachyrhizi [3]) was at most 30%, the “lesion area relative to the lesion area of non-treated leaf disk” value [1] was at most 30% and the “number of germinated spores relative to the non-treated well” value (Phakopsora pachyrhizi [2]) was at most 50%.

With O=S(=O)(c1cccnc1)n1ccc(-c2cc(F)cc(F)c2)n1 [compound 98] the “lesion area relative to the lesion area in the non-treated soybeans” value (Phakopsora pachyrhizi [3]) was at most 30%, the “lesion area relative to the lesion area of non-treated leaf disk” value [1] was at most 30% and the “number of germinated spores relative to the non-treated well” value (Phakopsora pachyrhizi [2]) was at most 50%.

For O=S(=O)(c1ccco1)n1ccc(-c2ccc(F)c(F)c2)n1 [compound 91], the “lesion area relative to the lesion area in the non-treated soybeans” value (Phakopsora pachyrhizi [3]) was at most 30%, the “lesion area relative to the lesion area of non-treated leaf disk” value [1] was at most 30% and the “number of germinated spores relative to the non-treated well” value (Phakopsora pachyrhizi [2]) was at most 50%.

For COc1ccc(-c2ccn(S(=O)(=O)c3cccnc3)n2)cc1 [compound 58], the “lesion area relative to the lesion area in the non-treated soybeans” value (Phakopsora pachyrhizi [3]) was at most 30%, the “lesion area relative to the lesion area of non-treated leaf disk” value [1] was at most 30% and the “number of germinated spores relative to the non-treated well” value (Phakopsora pachyrhizi [2]) was at most 50%.

In the case of O=S(=O)(c1ccco1)n1ccc(-c2ccc(F)cc2)n1 [compound 88], the “lesion area relative to the lesion area in the non-treated soybeans” value (Phakopsora pachyrhizi [3]) was at most 30%, the “lesion area relative to the lesion area of non-treated leaf disk” value [1] was at most 30% and the “number of germinated spores relative to the non-treated well” value (Phakopsora pachyrhizi [2]) was at most 50%.

For Cc1cccc(S(=O)(=O)n2ccc(-c3cc(F)c(Br)c(F)c3)n2)c1 [compound 20], the “lesion area relative to the lesion area in the non-treated soybeans” value (Phakopsora pachyrhizi [3]) was at most 30%, the “lesion area relative to the lesion area of non-treated leaf disk” value [1] was at most 30% and the “number of germinated spores relative to the non-treated well” value (Phakopsora pachyrhizi [2]) was at most 50%.

O=S(=O)(c1ccc(Cl)s1)n1ccc(-c2cc(F)c(Br)c(F)c2)n1 [compound 47] was tested, and the “lesion area relative to the lesion area in the non-treated soybeans” value (Phakopsora pachyrhizi [3]) was at most 30%, the “lesion area relative to the lesion area of non-treated leaf disk” value [1] was at most 30% and the “number of germinated spores relative to the non-treated well” value (Phakopsora pachyrhizi [2]) was at most 50%.

O=S(=O)(c1ccoc1)n1ccc(-c2cc(F)cc(F)c2)n1 [compound 74] was tested, and the “lesion area relative to the lesion area in the non-treated soybeans” value (Phakopsora pachyrhizi [3]) was at most 30%, the “lesion area relative to the lesion area of non-treated leaf disk” value [1] was at most 30% and the “number of germinated spores relative to the non-treated well” value (Phakopsora pachyrhizi [2]) was at most 50%.

O=S(=O)(c1cncc(F)c1)n1ccc(-c2cc(F)c(Br)c(F)c2)n1 [compound 100] was tested, and the “lesion area relative to the lesion area in the non-treated soybeans” value (Phakopsora pachyrhizi [3]) was at most 30%, the “lesion area relative to the lesion area of non-treated leaf disk” value [1] was at most 30% and the “number of germinated spores relative to the non-treated well” value (Phakopsora pachyrhizi [2]) was at most 50%.

With O=S(=O)(c1ccccc1Cl)n1ccc(-c2cc(F)c(Br)c(F)c2)n1 [compound 11] the “lesion area relative to the lesion area in the non-treated soybeans” value (Phakopsora pachyrhizi [3]) was at most 30%, the “lesion area relative to the lesion area of non-treated leaf disk” value [1] was at most 30% and the “number of germinated spores relative to the non-treated well” value (Phakopsora pachyrhizi [2]) was at most 50%.

With O=S(=O)(c1cccs1)n1ccc(-c2cc(F)cc(F)c2)n1 [compound 75] the “lesion area relative to the lesion area in the non-treated soybeans” value (Phakopsora pachyrhizi [3]) was at most 30%, the “lesion area relative to the lesion area of non-treated leaf disk” value [1] was at most 30% and the “number of germinated spores relative to the non-treated well” value (Phakopsora pachyrhizi [2]) was at most 50%.

For O=S(=O)(c1ccoc1)n1ccc(-c2ccccc2)n1 [compound 86], the “lesion area relative to the lesion area in the non-treated soybeans” value (Phakopsora pachyrhizi [3]) was at most 30%, the “lesion area relative to the lesion area of non-treated leaf disk” value [1] was at most 30% and the “number of germinated spores relative to the non-treated well” value (Phakopsora pachyrhizi [2]) was at most 50%.

In the case of Cn1ccc(S(=O)(=O)n2ccc(-c3cc(F)c(Br)c(F)c3)n2)n1 [compound 34], the “lesion area relative to the lesion area in the non-treated soybeans” value (Phakopsora pachyrhizi [3]) was at most 30%, the “lesion area relative to the lesion area of non-treated leaf disk” value [1] was at most 30% and the “number of germinated spores relative to the non-treated well” value (Phakopsora pachyrhizi [2]) was at most 50%.

For Cn1ccnc1S(=O)(=O)n1ccc(-c2cc(F)c(Br)c(F)c2)n1 [compound 38], the “lesion area relative to the lesion area in the non-treated soybeans” value (Phakopsora pachyrhizi [3]) was at most 30%, the “lesion area relative to the lesion area of non-treated leaf disk” value [1] was at most 30% and the “number of germinated spores relative to the non-treated well” value (Phakopsora pachyrhizi [2]) was at most 50%.

With O=S(=O)(c1cccs1)n1ccc(-c2ccc(F)cc2)n1 [compound 90] the “lesion area relative to the lesion area in the non-treated soybeans” value (Phakopsora pachyrhizi [3]) was at most 30%, the “lesion area relative to the lesion area of non-treated leaf disk” value [1] was at most 30% and the “number of germinated spores relative to the non-treated well” value (Phakopsora pachyrhizi [2]) was at most 50%.

From US20260344668A1, “PHENYLPYRAZOLE COMPOUND, AND PLANT DISEASE CONTROL METHOD” (priority 2022, published 2026)
